Experiments:
Type in all cases: cell-based
MYB mRNA [1] = test: Gene panel canonical junction qPCR assay, decrease in CJ mRNA, Table 3; settings: decrease in canonical junction (CJ) mRNA, gene panel qPCR, Table 3
Procedure, shortened: (§1)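 Eleven-point dose responses from 10 uM final, 24 h, DMSO ≤0.25%, in A673 or K562 cells. Relative quantification by 2^(−ΔΔCt) against housekeeper and vehicle was converted to percent response over fixed ΔCt windows and fitted to yield IC50.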

HTT mRNA [2] = test: as above; settings: decrease in canonical junction (CJ) mRNA, gene panel qPCR, Table 3
Procedure, shortened: as §1

MYB mRNA [3] = test: Splicing RT-qPCR assay (THP), Table 2A; settings: Table 2A (THP); for AC50: AJ mRNA increase, read-out: MYB AJ (increase in alternative junction mRNA, AC50); for IC50: CJ mRNA decrease, read-out: MYB CJ (decrease in canonical junction mRNA, IC50)
[4] = test system: SH-SY5Y (human neuroblastoma) cells; test: Cell viability, Cell Titer Glo 2.0 assay; settings: read-out: Viability SHSY5Y.3 GI50
Procedure, shortened: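 Following a 72 h incubation (37 °C, 5% CO2, 0.1% DMSO final), compound toxicity toward SH-SY5Y cells was quantified by CellTiter-Glo 2.0.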

HTT mRNA [5] = test: Splicing RT-qPCR assay (THP), Table 2A; settings: Table 2A (THP); for AC50: AJ mRNA increase, read-out: HTT AJ (increase in alternative junction mRNA, AC50); for IC50: CJ mRNA decrease, read-out: HTT CJ (decrease in canonical junction mRNA, IC50)

Structure (SMILES) | IC50 (MYB mRNA [1]) [µM] | IC50 (HTT mRNA [2]) [µM] | AC50 (MYB mRNA [3]) [µM] | IC50 (MYB mRNA [3]) [µM] | GI50 [4] [µM] | AC50 (HTT mRNA [5]) [µM] | IC50 (HTT mRNA [5]) [µM]
COc1cc2nc(CF)cn2cc1NC(=O)c1c(F)cc(N2CCC(NC3CC3)CC2)c2cn(C)nc12 [Compound 407, [cyclopropyl-[1-[6-fluoro-7-[[2-(fluoromethyl)-7-methoxy-imidazo[1,2-a]-pyridin-6-yl]carbamoyl]-2-methyl-indazol-4-y1]-4-piperidyl]amino] 2,2,2-trifluoroacetate] | < 0.1 | > 10 | < 0.1 | < 0.1 | 1 to 10 | > 10 | > 10
Cc1cn2cc(NC(=O)c3c(F)cc(N4CCC(NC5CC5)CC4)c4cn(C)nc34)nc(Oc3ccccn3)c2n1 [Compound 408, 4-[4-(cyclopropylamino)-1-piperidy1]-6-fluoro-2-methyl-N-[2-methyl-8-(2-pyridyloxy)imidazo[1,2-a]-pyrazin-6-yl]indazole-7-carboxamide] | < 0.1 | 1 to 10 | < 0.1 | < 0.1 | 0.1 to 1 | 0.1 to 1 | 1 to 10
Cc1cn2cc(NC(=O)c3c(F)cc(N4CCC(NC5CC5)CC4)c4cn(C)nc34)cc(Oc3cccnn3)c2n1 [Compound 409] | 0.1 to 1 | 1 to 10 | 1 to 10 | 0.1 to 1 | > 10 | > 10 | 1 to 10
Cc1cn2cc(NC(=O)c3c(F)cc(N4CCC(NC5CC5)CC4)c4cn(C)nc34)cc(Oc3cn[nH]c3)c2n1 [Compound 410, N-(8-((1H-pyrazol-4-yl)oxy)-2-methylimidazo[1,2-a]-pyridin-6-yl)-4-(4-(cyclopropylamino)piperidin-1-yl)-6-fluoro-2-methyl-2H-indazole-7-carboxamide 2,2,2-trifluoroacetate] | > 10 | > 10 | > 10 | > 10 | > 10 | > 10 | > 10
Cn1cc2c(N3CCC(NC4CC4)CC3)cc(F)c(C(=O)Nc3cccnc3O)c2n1 [Compound 411, 4-[4-(cyclopropylamino)-1-piperidyl]-6-fluoro-N-(2-hydroxy-3-pyridyl)-2-methyl-indazole-7-carboxamide] | > 10 | 1 to 10 | > 10 | > 10 | > 10 | > 10 | 1 to 10
COc1ncccc1NC(=O)c1c(F)cc(N2CCC(NC3CC3)CC2)c2cn(C)nc12 [Compound 412, 4-(4-(cyclopropylamino)piperidin-1-yl)-6-fluoro-N-(2-methoxypyridin-3-yl)-2-methyl-2H-indazole-7-carboxamide] | 1 to 10 | > 10 | 1 to 10 | 1 to 10 | 1 to 10 | > 10 | > 10
COc1nnccc1NC(=O)c1c(F)cc(N2CCC(NC3CC3)CC2)c2cn(C)nc12 [Compound 413, 4-[4-(cyclopropylamino)-1-piperidyl]-6-fluoro-N-(3-methoxypyridazin-4-yl)-2-methyl-indazole-7-carboxamide] | > 10 | 1 to 10 | 1 to 10 | > 10 | 1 to 10 | > 10 | 1 to 10
COc1ccncc1NC(=O)c1c(F)cc(N2CCC(NC3CC3)CC2)c2cn(C)nc12 [Compound 414, 4-[4-(cyclopropylamino)-1-piperidyl]-6-fluoro-N-(4-methoxy-3-pyridyl)-2-methyl-indazole-7-carboxamide] | > 10 | > 10 | > 10 | > 10 | > 10 | > 10 | > 10
CCOc1cc2nn(C)cc2cc1NC(=O)c1c(F)cc(N2CCC(NC3CC3)CC2)c2cn(C)nc12 [Compound 415, 4-[4-(cyclopropyl-amino)-1-piperidyl]-N-(6-ethoxy-2-methylindazol-5-yl)-6-fluoro-2-methylindazole-7-carboxamide] | < 0.1 | 0.1 to 1 | < 0.1 | < 0.1 | 0.1 to 1 | 0.1 to 1 | 0.1 to 1
Cc1nc(CNS(C)(=O)=O)cn2cc(NC(=O)c3c(F)cc(N4CCC(NC5CC5)CC4)c4cn(C)nc34)nc12 [Compound 416, 4-(4-(cyclopropylamino)-piper-idin-1-yl)-6-fluoro-2-meth-yl-N-(8-methyl-6-(methyl-sulfonamidomethyl)-imidazo[1,2-a]pyrazin-2-yl)-2H-indazole-7-carbox-amide 2,2,2-trifluoroacetate] | > 10 | > 10 | > 10 | > 10 | > 10 | > 10 | > 10
Cc1cn2cc(NC(=O)c3c(F)cc(N4CCC(NC5CC5)CC4)c4cn(C)nc34)c(Oc3ccccc3)cc2n1 [Compound 417, 4-[4-(cyclopropylamino)-1-piperidyl]-6-fluoro-2-methyl-N-(2-methyl-7-phenoxyimidazo[1,2-a]pyridin-6-yl)-indazole-7-carboxamide] | < 0.1 | > 10 | < 0.1 | < 0.1 | 0.1 to 1 | 1 to 10 | > 10
COc1cc2nn(C)c(C)c2cc1NC(=O)c1c(F)cc(N2CCC(NC3CC3)CC2)c2cn(C)nc12 [Compound 418, 4-[4-(cyclopropylamino)-1-piperidyl]-6-fluoro-N-(6-methoxy-2,3-dimethyl-indazol-5-yl)-2-methyl-indazole-7-carboxamide] | 1 to 10 | > 10 | 0.1 to 1 | 1 to 10 | 0.1 to 1 | > 10 | > 10
COc1c(NC(=O)c2c(F)cc(N3CCC(NC4CC4)CC3)c3cn(C)nc23)cn2cc(C)nc(C)c12 [Compound 419, 4-[4-(cyclopropylamino)-1-piperidyl]-6-fluoro-N-(8-methoxy-1,3-dimethyl-pyrrolo[1,2-a]pyrazin-7-yl)-2-methyl-indazole-7-carboxamide] | 1 to 10 | > 10 | 1 to 10 | 1 to 10 | 1 to 10 | > 10 | > 10
Cn1cc2c(N3CCC(NC4CC4)CC3)cc(F)c(C(=O)Nc3ccnnc3O)c2n1 [Compound 420, 4-[4-(cyclopropylamino)-1-piperidyl]-6-fluoro-N-(3-hydroxypyridazin-4-yl)-2-methyl-indazole-7-carboxamide] | > 10 | > 10 | > 10 | > 10 | > 10 | > 10 | > 10
COc1cnncc1NC(=O)c1c(F)cc(N2CCC(NC3CC3)CC2)c2cn(C)nc12 [Compound 421, 4-[4-(cyclopropylamino)-1-piperidyl]-6-fluoro-N-(5-methoxypyridazin-4-yl)-2-methyl-indazole-7-carbox-amide] | > 10 | > 10 | > 10 | > 10 | 1 to 10 | > 10 | > 10
